Source: ChEMBL document CHEMBL1687745 (Antimicrob Agents Chemother, 2009)
In brackets after ≈: the same amount, converted by molar mass.

Assays:
Bacillus anthracis [1] = test: Antimicrobial activity against Bacillus anthracis Sterne spores by broth microdilution method; format: functional
Bacillus anthracis [2] = test: Antimicrobial activity against Bacillus anthracis Sterne vegetative cells by broth microdilution method; format: functional

| Compound | MIC (Bacillus anthracis [1]) | MIC (Bacillus anthracis [2]) |
| --- | --- | --- |
| N=C(N)c1ccc2oc(CCc3cc4ccc(C(=N)N)cc4[nH]3)cc2c1 | 8.4 µg/mL (≈ 24.3 µM) | 8.4 µg/mL (≈ 24.3 µM) |
| c1cc2cc(-c3cc4ccc(C5=NCCN5)cc4[nH]3)[nH]c2cc1C1=NCCN1 | 0.6 µg/mL (≈ 1.63 µM) | 1.1 µg/mL (≈ 2.99 µM) |
| C(=C\c1cc2cc(C3=NCCN3)ccc2o1)/c1cc2cc(C3=NCCN3)ccc2o1 | > 19 µg/mL | > 19 µg/mL |
| N=C(N)c1ccc2oc(/C=C/c3cc4cc(C(=N)N)ccc4s3)cc2c1 | 8.7 µg/mL (≈ 24.1 µM) | 17 µg/mL (≈ 47.2 µM) |
| N=C(N)c1ccc(-c2nc3cc(C(=N)N)ccc3[nH]2)cc1 | > 14 µg/mL | > 14 µg/mL |
| c1cc(-c2nc3cc(-c4nc5ccc(C6=NCCN6)cc5[nH]4)ccc3[nH]2)ccc1C1=NCCN1 | 1.4 µg/mL (≈ 3.14 µM) | 22.3 µg/mL (≈ 49.9 µM) |
| C(=C\c1cc2ccc(C3=NCCN3)cc2[nH]1)/c1ccc(Oc2ccc(C3=NCCN3)cc2)cc1 | 2.6 µg/mL (≈ 5.81 µM) | 2.6 µg/mL (≈ 5.81 µM) |
| N=C(N)c1ccc2cc(C(=N)N)[nH]c2c1 | > 11 µg/mL | > 11 µg/mL |
| N=C(N)c1ccc(/C=C/c2cc3cc(C(=N)N)ccc3[nH]2)cc1 | 15 µg/mL (≈ 49.4 µM) | > 15 µg/mL |
| C(/C=C/c1cc2cc(C3=NCCN3)ccc2o1)=C\c1ccc(C2=NCCN2)cc1 | 18.2 µg/mL (≈ 47.6 µM) | 18.2 µg/mL (≈ 47.6 µM) |
| N=C(N)c1ccc2oc(/C=C/c3cc4ccc(C(=N)N)cc4o3)cc2c1 | > 17 µg/mL | > 17 µg/mL |
| N=C(N)c1ccc(/C=C/C=C/c2cc3cc(C(=N)N)ccc3o2)cc1 | 8.1 µg/mL (≈ 24.5 µM) | 16.1 µg/mL (≈ 48.7 µM) |
| Nc1ccc(C2=Cc3ccc(N)cc3S2(=O)=O)cc1 | > 11 µg/mL | > 11 µg/mL |
| C(=C\c1cc2cc(C3=NCCN3)ccc2s1)/c1ccc(C2=NCCN2)cc1 | 17.8 µg/mL (≈ 47.8 µM) | 17.8 µg/mL (≈ 47.8 µM) |
| Cc1cc(N)c2cc(NC(=O)Nc3ccc4nc(C)cc(N)c4c3)ccc2n1 [AMINOQUINURIDE] | 4.5 µg/mL (≈ 12.1 µM) | 17.8 µg/mL (≈ 47.8 µM) |
| N=C(N)c1ccc(-n2nc3ccc(C(=N)N)cc3n2)cc1 | > 14 µg/mL | > 14 µg/mL |
| N=C(N)c1ccc(-c2cc3ccc(C(=N)N)cc3s2)cc1 | > 19 µg/mL | > 19 µg/mL |

| Compound | MIC (Bacillus anthracis [1]) | MIC (Bacillus anthracis [2]) |
| --- | --- | --- |
| N=C(N)c1ccc(NC(=O)c2cc3ccc(C(=N)N)cc3o2)cc1 | > 16 µg/mL | > 16 µg/mL |
| O=C(Nc1ccc(C2=NCCN2)cc1)c1cc2cc(C3=NCCN3)ccc2o1 | 18 µg/mL (≈ 48.2 µM) | > 18 µg/mL |
| N=C(N)c1ccc(-c2[nH]c3cc(C(=N)N)ccc3c2-c2ccccc2)cc1 | 9 µg/mL (≈ 25.5 µM) | 17 µg/mL (≈ 48.1 µM) |
| N=C(N)c1ccc(Oc2ccc(-c3cc4ccc(C(=N)N)cc4[nH]3)cc2)cc1 | 4 µg/mL (≈ 10.8 µM) | 4 µg/mL (≈ 10.8 µM) |
| N=C(N)c1ccc(-c2cc3cc(C(=N)N)ccc3s2)cc1 | > 15 µg/mL | > 15 µg/mL |
| OCCn1c(/C=C/c2nc3ccccc3[nH]2)nc2ccccc21 | > 12 µg/mL | > 12 µg/mL |
| N=C(N)c1ccc(-c2ccc(-c3ccc(C(=N)N)cc3)s2)cc1 | 16 µg/mL (≈ 49.9 µM) | > 16 µg/mL |
| O=C(Nc1ccc(C2=NCCN2)cc1)c1cc2ccc(C3=NCCN3)cc2[nH]1 | 8.9 µg/mL (≈ 23.9 µM) | 17.8 µg/mL (≈ 47.8 µM) |
| N=C(N)Nc1ccc(-c2cc3cc(NC(=N)N)ccc3s2)cc1 | 15.9 µg/mL (≈ 49 µM) | > 16 µg/mL |
| C(=C\c1cc2cc(C3=NCCN3)ccc2o1)/c1ccc(C2=NCCN2)cc1 | 17.2 µg/mL (≈ 48.3 µM) | 17.2 µg/mL (≈ 48.3 µM) |
| N=C(N)c1ccc(/C=C/c2cc3ccc(C(=N)N)cc3[nH]2)cc1 | 7.5 µg/mL (≈ 24.7 µM) | 15 µg/mL (≈ 49.4 µM) |
| Cc1cc2nc(/C=C/c3nc4cc(C)c(C)cc4[nH]3)[nH]c2cc1C | > 13 µg/mL | > 13 µg/mL |
| c1cc(-c2[nH]c3cc(C4=NCCN4)ccc3c2-c2cc3ccc(C4=NCCN4)cc3[nH]2)ccc1C1=NCCN1 | 24.9 µg/mL (≈ 48.6 µM) | 24.9 µg/mL (≈ 48.6 µM) |
| N=C(N)c1ccc(-c2[nH]c3cc(C(=N)N)ccc3c2N)cc1 | > 15 µg/mL | > 15 µg/mL |
| O=C(Nc1ccc(C2=NCCN2)cc1)c1cc2ccc(C3=NCCN3)cc2o1 | > 18 µg/mL | > 18 µg/mL |
| c1cc(-c2cc3ccc(C4=NCCN4)cc3s2)ccc1C1=NCCN1 | > 17 µg/mL | > 17 µg/mL |
| N=C(N)c1ccc2[nH]c(/C=C/c3cc4ccc(C(=N)N)cc4o3)cc2c1 | 8 µg/mL (≈ 23.3 µM) | > 17 µg/mL |
